We go through four compounds from ChEMBL document CHEMBL2073824, “Mechanism of the pharmacokinetic interaction between methotrexate and benzimidazoles: potential role for breast cancer resistance protein in clinical drug-drug interactions” (Cancer Res, 2004).

In data set [1] the target is T1, Broad substrate specificity ATP-binding cassette transporter ABCG2 (Homo sapiens, UniProt Q9UNQ0).
T1 sequence (Q9UNQ0 whole entry): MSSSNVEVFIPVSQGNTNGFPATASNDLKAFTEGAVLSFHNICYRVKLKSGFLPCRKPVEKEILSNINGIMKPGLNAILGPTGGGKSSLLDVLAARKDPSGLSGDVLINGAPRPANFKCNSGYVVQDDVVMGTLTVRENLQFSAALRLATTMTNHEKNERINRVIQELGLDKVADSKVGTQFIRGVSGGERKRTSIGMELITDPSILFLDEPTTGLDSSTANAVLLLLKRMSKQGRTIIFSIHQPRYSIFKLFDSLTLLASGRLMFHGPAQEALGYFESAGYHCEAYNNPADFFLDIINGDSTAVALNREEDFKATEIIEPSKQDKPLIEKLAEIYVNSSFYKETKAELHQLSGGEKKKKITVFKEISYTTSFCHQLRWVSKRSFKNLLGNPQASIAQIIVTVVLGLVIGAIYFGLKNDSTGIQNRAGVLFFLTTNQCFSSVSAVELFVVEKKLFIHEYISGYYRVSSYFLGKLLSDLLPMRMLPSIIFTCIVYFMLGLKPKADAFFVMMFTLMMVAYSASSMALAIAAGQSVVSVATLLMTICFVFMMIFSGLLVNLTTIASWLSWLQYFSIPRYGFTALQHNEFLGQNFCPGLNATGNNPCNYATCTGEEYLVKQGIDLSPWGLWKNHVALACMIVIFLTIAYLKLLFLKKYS
The data set is described as follows: TP_TRANSPORTER: uptake in membrane vesicle from BCRP-expressing Sf9 cells. The class given is functional, cell membranes.

The target in data set [2] is T1, Broad substrate specificity ATP-binding cassette transporter ABCG2. The data set is described as follows: TP_TRANSPORTER: inhibition of MTX uptake in membrane vesicle from BCRP-expressing Sf9 cell. The class given is functional, cell membranes.
The target of data set [3] is T2, Broad substrate specificity ATP-binding cassette transporter ABCG2 (Mus musculus, UniProt Q7TMS5).
T2 sequence (Q7TMS5 whole entry): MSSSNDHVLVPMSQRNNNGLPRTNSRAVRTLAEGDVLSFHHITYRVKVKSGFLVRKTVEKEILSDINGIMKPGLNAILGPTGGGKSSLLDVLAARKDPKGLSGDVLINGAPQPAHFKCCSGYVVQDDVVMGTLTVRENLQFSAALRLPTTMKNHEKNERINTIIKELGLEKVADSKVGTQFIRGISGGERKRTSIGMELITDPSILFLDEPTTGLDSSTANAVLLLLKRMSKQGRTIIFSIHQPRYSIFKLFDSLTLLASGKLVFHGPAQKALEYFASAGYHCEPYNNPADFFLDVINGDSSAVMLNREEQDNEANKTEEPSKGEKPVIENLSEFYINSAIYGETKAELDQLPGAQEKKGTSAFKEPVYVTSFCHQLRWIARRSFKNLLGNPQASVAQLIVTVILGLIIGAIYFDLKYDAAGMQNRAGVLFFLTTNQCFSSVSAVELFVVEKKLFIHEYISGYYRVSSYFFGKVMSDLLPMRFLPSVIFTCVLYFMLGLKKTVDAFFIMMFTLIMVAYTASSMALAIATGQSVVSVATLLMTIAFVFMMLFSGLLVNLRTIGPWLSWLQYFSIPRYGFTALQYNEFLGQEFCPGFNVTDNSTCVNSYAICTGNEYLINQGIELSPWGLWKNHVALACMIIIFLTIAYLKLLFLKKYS
The data set can be described thus: TP_TRANSPORTER: transepithelial transport in Bcrp-expressing MDCKII cells. It counts as functional, cell-based. The following applies: dog, mdck-ii.

As to `CN(Cc1cnc2nc(N)nc(N)c2n1)c1ccc(C(=O)N[C@@H](CCC(=O)O)C(=O)O)cc1` [METHOTREXATE], the Activity result in data set [1] is “substrate []”.

A word on the IC50: it is the midpoint of a concentration-inhibition curve. As for `COc1ccc2[nH]c([S+]([O-])Cc3ncc(C)c(OC)c3C)nc2c1` (stereo not given) [OMEPRAZOLE], the IC50 result in data set [2] (sf9) was “inhibitor [IC50=10-50uM]”. For `COc1ccnc(C[S+]([O-])c2nc3ccc(OC(F)F)cc3[nH]2)c1OC` (stereo not given) [PANTOPRAZOLE], the Km entry in data set [3] is “substrate [Km=0.1-0.2mM]”. In addition, in data set [2] (read-out: IC50), the IC50 is 10 µM. Take `CC[C@@]1(O)C(=O)OCc2c1cc1n(c2=O)Cc2cc3c(CN(C)C)c(O)ccc3nc2-1` [TOPOTECAN]: the Activity result in data set [3] is “substrate []”.
